Measured values taken from patent US20130108717A1, “COMPOSITIONS FOR THE TREATMENT OF GYNAECOLOGICAL DISORDERS” (INDENA S.P.A., priority 2010, published 2013).
In brackets after ≈: the same amount, converted by molar mass.

Key:
Type in all cases: cell-based
Trichomonas vaginalis = assay: MIC on Diamond's medium, loss of motility, vaginally isolated strains
Candida albicans = assay: MIC, microdilution in broth (CLSI M27-A), vaginally isolated strains
Gardnerella vaginalis = assay: MIC, broth dilution (CLSI M11-A4), vaginally isolated strains
[1] = test system: Methicillin-resistant Staphylococcus aureus; assay: MIC, micro-dilution in culture broth (CLSI M 7-A5), vaginally isolated strains

MIC (Trichomonas vaginalis; Trichomonas vaginalis 1): 150 µg/mL (≈ 319 µM)
MIC (Trichomonas vaginalis; Trichomonas vaginalis 2): 150 µg/mL (≈ 319 µM)
MIC (Trichomonas vaginalis; Trichomonas vaginalis 3): 150 µg/mL (≈ 319 µM)
MIC (Trichomonas vaginalis; Trichomonas vaginalis 4): 150 µg/mL (≈ 319 µM)
MIC (Candida albicans; Candida albicans 1): 667 µg/mL (≈ 1420 µM)
MIC (Candida albicans; Candida albicans 2): 667 µg/mL (≈ 1420 µM)
MIC (Candida albicans; Candida albicans 3): 667 µg/mL (≈ 1420 µM)
MIC (Candida albicans; Candida albicans 4): 667 µg/mL (≈ 1420 µM)
MIC (Candida albicans; Candida albicans 5): 333 µg/mL (≈ 707 µM)
MIC (Gardnerella vaginalis; Gardnerella vaginalis 1): 667 µg/mL (≈ 1420 µM)
MIC (Gardnerella vaginalis; Gardnerella vaginalis 2): 667 µg/mL (≈ 1420 µM)
MIC (Gardnerella vaginalis; Gardnerella vaginalis 3): 333 µg/mL (≈ 707 µM)
MIC (Gardnerella vaginalis; Gardnerella vaginalis 4): 167 µg/mL (≈ 355 µM)
MIC (Gardnerella vaginalis; Gardnerella vaginalis 5): 667 µg/mL (≈ 1420 µM)
MIC (Gardnerella vaginalis; Gardnerella vaginalis 6): 667 µg/mL (≈ 1420 µM)
MIC (Gardnerella vaginalis; Gardnerella vaginalis 7): 167 µg/mL (≈ 355 µM)
MIC (Gardnerella vaginalis; Gardnerella vaginalis 8): 333 µg/mL (≈ 707 µM)
MIC (Gardnerella vaginalis; Gardnerella vaginalis 9): 333 µg/mL (≈ 707 µM)
MIC (Gardnerella vaginalis; Gardnerella vaginalis 10): 167 µg/mL (≈ 355 µM)
MIC ([1]; S. aureus Met R 1): >1333 µg/mL
MIC ([1]; S. aureus Met R 2): >1333 µg/mL
MIC ([1]; S. aureus Met R 3): 1333 µg/mL (≈ 2830 µM)
MIC ([1]; S. aureus Met R 4): 1333 µg/mL (≈ 2830 µM)
MIC ([1]; S. aureus Met R 5): >1333 µg/mL
SMILES: CC1(C)[C@@H](O)CC[C@]2(C)[C@H]3C(=O)C=C4[C@@H]5C[C@@](C)(C(=O)O)CC[C@]5(C)CC[C@@]4(C)[C@]3(C)CC[C@@H]12 [18-beta-glycyrrhetic acid, 18β-glycyrrhetic acid]
